Data: article PMC7206208, “In vivo data: treatment with the F11R/JAM-A peptide 4D decreases mortality and reduces the generation of atherosclerotic plaques in ApoE-deficient mice” (Data in Brief, 2020)
Non-standard residues stand in square brackets, D forms with d. Residues, ends and D or L forms follow the SMILES beside them.

Tests used:
inflamed endothelium = test: Platelet adhesion to walls of blood vessels, intravital microscopy; assay type: in vivo, mice; details: intravital microscopy videos, arteriole and venule
From the text: The F11 Receptor (F11R/JAM-A; Junctional Adhesion Molecule-A; JAM-A; F11R) is a cell adhesion protein present on the surface of circulating platelets and located within the tight junctions of endothelial and epithelial cells. The data presented here confirm in-vivo evidence for the critical role of F11R/JAM-A in the formation of atherosclerotic plaques in ApoE^-/- mice and provide further strong experimental support for our work in Babinska et al. (2019). […] These mice were euthanized, and at the same time, two mice obtained from the peptide 4D-treated group were randomly-selected and euthanized, and their tissues examined histologically in comparison to the controls. […] The data presented in Fig. 3, compare the overall health and physical appearance of 10^1/2 months old ApoE^-/- mice following their termination of a 4- month injection period with either peptide 4D or the vehicle. […] Data of Fig. 5 display the pharmacokinetic analysis (PK) of peptide 4D in vivo. Data display by videos: videos depicting platelet adhesion to the walls of blood vessels using the Intravital Microscopy System are provided and available in this article as the Supplemental Files. […]

ApoE-/- mice = test: Chronic treatment of ApoE-/- mice: atherosclerotic plaques and physical appearance; assay type: in vivo, mouse
Protocol: Female Apo E^-/- mice (six weeks old) of a C57BL/6J background, (Jackson Laboratory, Bar Harbor, Me), were divided into two separately-housed groups. Group 1 was treated with peptide 4D by daily, intraperitoneal injections with peptide 4D (4.3 mg/200µl) for a 3 month period. Group 2 was injected daily with an equivalent amount of diluent vehicle (200µl of 0.9% saline) for the same 3- month period. All animals were fed a regular Rodent Diet (Calories provided by protein 28.1%, fat 12.13% and carbohydrates 59.8%) for two months, then the diet was switched to a Western-type diet (TD.88137 Adjusted Calories Diet (42% from fat) (0.15% cholesterol, 21% anhydrous milk fat) (Harlan Laboratories Inc.) to induce hypercholesterolemia for a period of one month, [2]. Following 3 month of injections with either the F11R peptide 4D or the vehicle, saline, the animals were euthanized. The aortas and hearts were isolated, dissected, and the atherosclerotic lesions were analyzed.
Following euthanasia, the aortas were prepared for dissection and the aortic arches were photographed. Following dissection, en face lesion surface area assay was performed on the aortas and hearts as previously described, [4], [5]. The dissected aortas were stained with Oil-Red-O stain modified from previously described methods, [4], [6]. […] The total intimal lesion area and the necrotic core area (NE) per cross section were quantified by taking the average of 6 sections spaced 30 µm apart, beginning at the base of the aortic root. The necrotic core areas, acellular/anuclear areas (negative for hematoxylin-positive nuclei, white areas of lesion) were measured per cross section from the same slides where total intimal lesion area was measured. […] Lesion areas or necrotic areas (white areas of lesion) where measured and summarized using software Image-J. The aortas were fixed in PBS/4% formaldehyde for 3 days, washed in PBS followed by staining with 1.8% Oil-Red-O in 60% isopropanol for 15 min at 22°C, then de-stained in 60% isopropanol for 5 min. […]

[1] = tested on: human platelets (in platelet-rich plasma); test: ADP-induced platelet aggregation in platelet-rich plasma (turbidimetric); assay type: cell-based; details: for maximal platelet aggregation [%] in response to 10 µM ADP: PRP, 37°C, 2 min pre-incubation, mean ± SD, n=3-7
Protocol: Fig. 4 Test of the effect of peptide 4D on the ADP-induced aggregation of human platelets (in platelet-rich plasma). Fig. 4A. This figure depicts a representative tracing of platelet aggregation induced by ADP (2µM) in the presence of peptide 4D (P4D; 500µM, final concentration), in comparison to the ADP-induced platelet aggregation in the absence of peptide 4D (control). Fig. 4B. This figure depicts a representative tracing of platelet aggregation induced by ADP (10µM) in the presence of peptide 4D (P4D, 500µM final concentration), in comparison to the ADP-induced platelet aggregation in the absence of peptide 4D (control).
Platelet aggregation in platelet-rich plasma (PRP) was carried-out by using the turbidimetric method in a platelet aggregometer (Chronolog, Haverstown, PA). Aliquots of the PRP were maintained at 37°C. The effect of peptide 4D on platelet aggregation was examined by utilizing three concentrations of peptide 4D (final concentrations of 100µM, 250µM and 500 µM). The PRP was incubated for 2 minutes with peptide 4D prior to the addition of ADP at final concentrations of 2µM (subthreshold concentration) or 10µM, for the initiation of platelet aggregation.

platelets = test: M.Ab.F11-induced platelet aggregation in vitro; assay type: cell-based; details: peptide 4D 0.3 mg (670 µg/ml), from dose-response
[2] = mouse, in vivo
Protocol: The concentration of peptide 4D was measured in the plasma at various time points, and is expressed in µg/ml. […] Time points of 15 min, followed by 1, 2, 4, 5, and 24 hours after the administration of peptide 4D were selected to generate the concentration of Cmax, Tmax, area under the plasma concentration time curve (AUC), drug clearance, terminal elimination half-life, and volume of distribution.
Drug pharmacokinetics (PK) in vivo is a key requirement for the evaluation of the stability and availability of peptide 4D, as a potential compound for use in the next phase of our investigations. Accordingly, PK data of peptide 4D were obtained by the Services of Bio Quant, San Diego, CA. Thus far, a single dose of the F11R peptide 4D and a time perfusion course were performed in Balb/c mice. Time points of 15 min, followed by 1, 2, 4, 5, and 24 hr after the administration of peptide 4D to animals, were selected to generate concentration vs time curves thereby allowing for the determination of the PK parameters of maximal concentration (Cmax), maximal time (Tmax), area under the plasma concentration time curve (AUC), drug clearance, terminal elimination half-life, and volume of distribution of peptide 4D.

[3] = tested on: inflamed endothelial cells; details: in culture; the authors' earlier work; cited from earlier work
From the text: The data in this article focus on the F11 Receptor (F11R/JAM-A; Junctional Adhesion Molecule-A; JAM-A, F11R), a cell adhesion protein constitutively expressed on the membrane surface of circulating platelets and localized within the tight junctions of healthy endothelial cells (ECs). Previous reports have shown that F11R/JAM-A plays a critical role in the adhesion of platelets to an inflamed endothelium due to its’ pathological expression on the luminal surface of the cytokine-inflamed endothelium. Since platelet adhesion to an inflamed endothelium is an early step in the development of athero ...

Which “adhesion of platelets onto the inflamed endothelium” value (inflamed endothelium) does the source give for `CC(C)[C@H](NC(=O)[C@H](CO)NC(=O)[C@H](N)CCCCN)C(=O)N[C@H](C(=O)N[C@H](CCCNC(=N)N)C(=O)N[C@@H](CCC(=O)O)C(=O)N[C@@H](CC(=O)O)C(=O)N[C@H](C(=O)NCC(=O)N[C@H](C(=O)N[C@@H](Cc1ccc(O)cc1)C(=O)N[C@H](C(=O)N[C@@H](CS)C(N)=O)[C@@H](C)O)[C@@H](C)O)[C@@H](C)O)[C@@H](C)O` [peptide 4D] (H-[dK]SVT[dR]EDTGTYTC-NH2; N-terminus and C-terminus assumed) here?
The value was “significant blockade”.

What about the “plaque accumulation in the aortic arch and the whole aorta” value (ApoE-/- mice; daily i.p. 215 mg/kg (4.3 mg/200 µl) for 3 months, versus saline controls, two mice per group, Fig. 2) of the same molecule?
Its value is “much diminished plaque accumulation”.

What about the external physical appearance (ApoE-/- mice; daily i.p. for 3 months, versus saline controls, Fig. 1) of the same molecule?
Its external physical appearance is “healthy”.

What about the “skin lesion on the chest” value (ApoE-/- mice; daily i.p. for 4 months, then stopped, observed at 10 1/2 months of age, Fig. 3B) of the same molecule?
The value was “lack of lesion”.

What about the “effect on ADP-induced platelet aggregation” value ([1]; Fig. 4 and Table 1, ADP 2 or 10 µM, peptide 100-500 µM) of the same molecule?
The value was “lack of an inhibitory effect”.

And the “maximal platelet aggregation [%] in response to 10 µM ADP” value (from here on “maximal platelet aggregation [%]”) ([1]; P4D 100 µM)?
The value was 70 ± 12%.

What about the “maximal platelet aggregation [%]” value ([1]; P4D 250 µM) of the same molecule?
The value was 73 ± 13%.

And the “maximal platelet aggregation [%]” value ([1]; P4D 500 µM)?
The value was 74 ± 20%.

And the “inhibition of M.Ab.F11-induced platelet aggregation” value (platelets)?
The value was “completely inhibited”.

What about the Tmax [2] of the same molecule?
Its Tmax is 18 min.

What about the half-life [2] of the same molecule?
Its half-life is > 210 min.

And the “adhesion of platelets to the inflamed endothelial cells” value [3]?
The value was “could be blocked”.
